Experimental data reported in patent US4873253A, “Phenylalanine derivative and proteinase inhibitor” (Okamoto; Shosuke, priority 1987, dated 1989).
Counter-ions that a name gives are not always drawn. Like-named read-outs stand apart in the source and are kept apart here.

Experiments:
[1] = molecular target: T1, human plasmin (Homo sapiens, UniProt P00747); assay: Antiplasmin activity: inhibition of S-2251 decomposition; assay type: biochemical; conditions: Table 2; substrate S-2251, pH 7.4, 37° C.
T1 sequence (P00747 581-810 limits assumed): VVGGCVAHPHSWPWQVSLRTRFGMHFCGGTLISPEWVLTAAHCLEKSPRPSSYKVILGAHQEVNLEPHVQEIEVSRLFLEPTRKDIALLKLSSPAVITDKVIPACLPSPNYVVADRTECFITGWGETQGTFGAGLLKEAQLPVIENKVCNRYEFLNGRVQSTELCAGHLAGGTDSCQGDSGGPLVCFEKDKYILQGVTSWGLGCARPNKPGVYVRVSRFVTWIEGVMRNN
T1 sequence (P00747 97-580 limits assumed): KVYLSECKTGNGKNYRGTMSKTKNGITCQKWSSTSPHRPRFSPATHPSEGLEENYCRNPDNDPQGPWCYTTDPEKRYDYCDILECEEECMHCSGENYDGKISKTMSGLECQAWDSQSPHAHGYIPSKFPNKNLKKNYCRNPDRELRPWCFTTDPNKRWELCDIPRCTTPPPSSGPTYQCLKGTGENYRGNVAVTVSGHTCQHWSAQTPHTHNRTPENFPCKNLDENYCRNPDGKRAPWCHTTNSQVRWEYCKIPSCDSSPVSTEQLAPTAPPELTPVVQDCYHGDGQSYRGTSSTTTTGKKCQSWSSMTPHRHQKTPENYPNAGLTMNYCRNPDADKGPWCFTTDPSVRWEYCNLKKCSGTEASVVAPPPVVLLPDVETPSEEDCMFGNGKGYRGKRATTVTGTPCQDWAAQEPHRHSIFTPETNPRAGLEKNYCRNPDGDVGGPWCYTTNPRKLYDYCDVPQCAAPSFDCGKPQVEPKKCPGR
Experimental: An inhibitor sample is dissolved in a 0.05 M Tris-hydrochloric acid buffer solution (pH=7.4) to make the total volume to 400 μl. […] Then, 50 μl of a 0.2 casein unit/ml human plasmin is added and the mixture is incubated at a temperature of 37° C. for 4 minutes. Thereafter, the reaction is stopped by adding 50 μl of 50% acetic acid.
Thus, the concentration I50 (μmol) of the inhibitor sample, at which the absorbance is one half (i.e., 1/2) of that obtained in the absence of the inhibitor, is determined.

[2] = molecular target: T1, human plasmin; assay: Antiplasmin activity: inhibition of fibrin decomposition; assay type: biochemical; conditions: Table 2, pH 7.4, 37° C., read-out: Plasmin Fibrin I50 (concentration doubling fibrin dissolution time)
Experimental: (i) Determination of inhibition activity for fibrin decomposition
An inhibitor sample is dissolved in a 0.18 M borate-physiological salt buffer solution (pH=7.4) to make the total volume to 600 μl. To this buffer solution, 200 μl of a 0.2% bovine fibrinogen, 100 μl of a 0.3 casein unit/ml human plasmin solution, and 100 μl of a 50 unit/ml bovine thrombin solution, all dissolved in the above-mentioned buffer, are added at a temperature of 37° C. in a constant temperature bath. Then, the dissolution time of the fibrin mass formed above is determined.

[3] = molecular target: T2, bovine thrombin (Bos taurus, UniProt P00735); assay: Antithrombin activity: inhibition of S-2238 decomposition; assay type: biochemical; conditions: Table 2; substrate S-2238, pH 8.3, 37° C.; read-out: Thrombin S-2238 I50
T2 construct: a 0.2 unit/ml bovine thrombin solution
Experimental: An inhibitor sample is dissolved in a 0.05 M Tris-hydrochloric acid buffer solution (pH=8.3) to make a total volume of 400 μl. […] Thus, the concentration I50 (μmol) of the inhibitor sample at which the absorbance is one half (i.e., 1/2) of that obtained in the absence of the inhibitor sample, is determined.

[4] = molecular target: T2, bovine thrombin; assay: Antithrombin activity: inhibition of fibrin formation (fibrinogen); assay type: biochemical; conditions: Table 2; bovine fibrinogen, pH 7.4, 37° C.; read-out: Thrombin Fibrinogen I50 (concentration doubling coagulation time)
Experimental: (i) Determination of inhibition activity against fibrin formation
An inhibitor sample is dissolved in a 0.18 M borate-physiological salt buffer solution (pH= 7.4) to make the total volume to 500 μl. […] Thus, a coagulation time is determined. The inhibitor concentration I50 (μmol), at which the coagulation time obtained in the absence of the inhibitor is extended twice, is determined.

[5] = molecular target: T3, bovine trypsin (Bos taurus, UniProt P00760); assay: Antitrypsin activity: inhibition of S-2238 decomposition; assay type: biochemical
T3 sequence (P00760 24-246): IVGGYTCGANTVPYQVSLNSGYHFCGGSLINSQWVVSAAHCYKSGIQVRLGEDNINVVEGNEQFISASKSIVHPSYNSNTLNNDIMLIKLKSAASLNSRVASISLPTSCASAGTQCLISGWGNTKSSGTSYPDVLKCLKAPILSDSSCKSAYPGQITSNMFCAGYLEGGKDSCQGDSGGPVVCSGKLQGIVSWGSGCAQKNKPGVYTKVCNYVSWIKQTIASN
Experimental: Determination of inhibition activity against S-2238 decomposition
An inhibitor sample is dissolved in a 0.05 M Tris-imidazole buffer solution (pH=8.1) and 125 μl of a 1 mM S-2238 solution is added to make the total volume to 1.20 ml. The mixture is incubated at a temperature of 37° C. for 5 minutes in a constant temperature bath. To this mixture, 0.05 ml of bovine trypsin is added and the absorbance, at 405 nm, of the p-nitroaniline formed per minute is determined at a temperature of 37° C. by using the so-called initial velocity method. Thus, the concentration I50 (μmol) of a inhibitor sample, at which the absorbance is one half (i.e., 1/2) of that obtained in the absence of the inhibitor sample, is determined.

[6] = molecular target: human plasma kallikrein (Homo sapiens, UniProt P03952); assay: Anti-plasma kallikrein activity: inhibition of S-2302 decomposition; assay type: biochemical
Sequence of human plasma kallikrein (P03952 391-638 limits assumed): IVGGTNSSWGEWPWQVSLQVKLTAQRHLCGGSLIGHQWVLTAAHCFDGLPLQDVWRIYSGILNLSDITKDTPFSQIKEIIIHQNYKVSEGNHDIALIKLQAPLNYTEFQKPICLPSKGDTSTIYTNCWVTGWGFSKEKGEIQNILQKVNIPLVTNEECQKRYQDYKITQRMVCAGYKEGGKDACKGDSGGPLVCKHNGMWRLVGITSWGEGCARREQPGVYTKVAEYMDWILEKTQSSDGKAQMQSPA
Sequence of human plasma kallikrein (P03952 20-390 limits assumed): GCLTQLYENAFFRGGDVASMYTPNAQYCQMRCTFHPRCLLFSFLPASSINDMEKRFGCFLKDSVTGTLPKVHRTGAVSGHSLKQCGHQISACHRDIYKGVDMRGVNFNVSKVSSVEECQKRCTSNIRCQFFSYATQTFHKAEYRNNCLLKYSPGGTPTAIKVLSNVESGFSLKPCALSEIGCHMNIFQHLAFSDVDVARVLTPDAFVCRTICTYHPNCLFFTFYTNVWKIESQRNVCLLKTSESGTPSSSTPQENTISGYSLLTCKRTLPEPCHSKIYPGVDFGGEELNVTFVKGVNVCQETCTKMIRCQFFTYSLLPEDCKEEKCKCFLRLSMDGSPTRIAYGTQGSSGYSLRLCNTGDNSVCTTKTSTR
Experimental: Determination of inhibition activity for S-2302 decomposition
(§1) An inhibitor sample is dissolved in a 0.05 M Tris-hydrochloric acid buffer solution (pH=7.8) to make the total volume to 400 μl. To this solution, 50 μl of a 2 mM S-2302 solution is added and the mixture is incubated at a temperature of 37° C. for 5 minutes in a constant temperature bath. Then, 50 μl of a 0.12 unit/ml human plasma kallikrein is added and the mixture is incubated at a temperature of 37° C. for 5 minutes. Thereafter, 50 μl of 50% acetic acid is added to terminate the reaction. The absorbance of the p-nitroaniline formed in the reaction mixture is measured at 405 nm. Thus, the concentration I50 (μmol) of the inhibitor sample, at which the absorbance is one half (i.e., 1/2) of that obtained in the absence of the inhibitor sample, is determined.

[7] = molecular target: human urokinase (Homo sapiens, UniProt P00749); assay: biochemical
Experimental: Determination of inhibition activity for S-2444 decomposition
as §1, with “solution (pH=8.8)” for “solution (pH=7.8)”, “a 1” for “a 2”, “mM S-2444” for “mM S-2302”, “a 500” for “a 0.12”, “human urokinase” for “human plasma kallikrein”

[8] = background statement; cited from earlier work
[9] = background statement; cited from earlier work; remark: listed apart in the source
[10] = background statement; cited from earlier work; remark: listed apart in the source
[11] = background statement; cited from earlier work; remark: listed apart in the source
[12] = Table 2, substrate S-2238, pH 8.1, 37° C., read-out: Trypsin S-2238 I50
[13] = Table 2, substrate S-2302, pH 7.8, 37° C., read-out: Plasma Kallikrein S-2302 I50
[14] = Table 2, substrate S-2444, pH 8.8, 37° C., read-out: Urokinase S-2444 I50

IC50 [1] [µM]	IC50 [2] [µM]	IC50 [3] [µM]	IC50 [4] [µM]	IC50 [5, 12] [µM]	IC50 [6, 13] [µM]	IC50 [7, 14] [µM]	Compound	IC50 [5] [µM]	IC50 [6] [µM]	IC50 [7] [µM]	half life in vivo [8]	hypotensive action [9]	LD50 value [10]	side effects when administered to humans [11]
65	24	> 100	> 400	8.8	0.83	87	NC[C@H]1CC[C@H](C(=O)NC(Cc2cccc(Oc3ccccc3)c2)C(=O)Nc2ccncc2)CC1 (mixture of isomers) [Compound 8, N-(trans-4-aminomethylcyclohexylcarbonyl)-3-phenoxy-DL-phenylalanine 4-pyridylamide dihydrochloride]	–	–	–	–	–	–	–
19	14	> 100	> 100	2.3	0.38	110	CC(=O)c1ccc(NC(=O)C(Cc2cccc(Oc3ccccc3)c2)NC(=O)[C@H]2CC[C@H](CN)CC2)cc1 (mixture of isomers) [Compound 2, N-(trans-4-aminomethylcyclohexylcarbonyl)-3-phenoxy-DL-phenylalanine 4-acetylanilide hydrochloride]	–	–	–	–	–	–	–
–	–	–	–	–	–	–	N=C(N)c1ccc2cc(OC(=O)c3ccc(N=C(N)N)cc3)ccc2c1 [FUT-175, reference compound]	0.27	0.076	0.013	short	large	small	–
–	–	–	–	–	–	–	Aprotinin	–	–	–	–	–	–	side effects such as allergic reactions
